Results: ChEMBL document CHEMBL1201862, “PubChem BioAssay data set” (2004)
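Exposure lasted 48 hours, with cells grown in 96-well plates and compounds tested at five concentrations. The concentration for 50% growth inhibition is given as GI50.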 Calls of active or inactive are those of the source. Rule as the data show it: active = GI50 up to about 1.1 µM and inactive = higher.

Legend:
Assay in all cases: NCI anticancer screen, dose series, 48 h
786-0 = system: 786-0
A498 = system: A498
A549 = system: A549
ACHN = system: ACHN
CAKI-1 = system: CAKI-1
CCRF-CEM = system: CCRF-CEM
COLO 205 = system: COLO 205
DLD-1 = system: DLD-1
DMS-114 = system: DMS-114
DMS-273 = system: DMS-273
HCC 2998 = system: HCC 2998
HCT-116 = system: HCT-116
HCT-15 = system: HCT-15
HL-60 = system: HL-60
HOP-18 = system: HOP-18
HOP-62 = system: HOP-62
HOP-92 = system: HOP-92
HT-29 = system: HT-29
IGROV-1 = system: IGROV-1
K562 = system: K562
KM-20L2 = system: KM-20L2
KM12 = system: KM12
LOX IMVI = system: LOX IMVI
LXFL 529 = system: LXFL 529
M14 = system: M14
M19-MEL = system: M19-MEL
Malme-3M = system: Malme-3M
NCI-H23 = system: NCI-H23
NCI-H460 = system: NCI-H460
NCI-H522 = system: NCI-H522
OVCAR-3 = system: OVCAR-3
OVCAR-5 = system: OVCAR-5
OVCAR-8 = system: OVCAR-8
RPMI-8226 = system: RPMI-8226
SF-268 = system: SF-268
SF-295 = system: SF-295
SF-539 = system: SF-539
SK-MEL-28 = system: SK-MEL-28
SK-MEL-2 = system: SK-MEL-2
SK-MEL-5 = system: SK-MEL-5
SK-OV-3 = system: SK-OV-3
SN12C = system: SN12C
SNB-19 = system: SNB-19
SNB-75 = system: SNB-75
SNB-78 = system: SNB-78
SR = system: SR
SW-620 = system: SW-620
TK-10 = system: TK-10
U-251 = system: U-251
UACC-257 = system: UACC-257
UACC-62 = system: UACC-62
UO-31 = system: UO-31
EKVX = system: EKVX
MOLT-4 = system: MOLT-4
NCI-H226 = system: NCI-H226
OVCAR-4 = system: OVCAR-4

`O=C(NC(Cc1ccccc1)C(=O)CCl)OCc1ccccc1` (stereo not drawn) was tested, and the GI50 (786-0) was 3.83 µM (inactive), the GI50 (A498) was 14.1 µM (inactive) and the GI50 (A549) was 18.2 µM (inactive). For the same compound, the GI50 (ACHN) was 10.1 µM (inactive), the GI50 (CAKI-1) was 5.15 µM (inactive) and the GI50 (CCRF-CEM) was 2.74 µM (inactive). The GI50 (COLO 205) was 7.16 µM (inactive), the GI50 (DLD-1) was 9.64 µM (inactive) and the GI50 (DMS-114) was 1.22 µM (inactive). The GI50 (DMS-273) was 5.02 µM (inactive), the GI50 (HCC 2998) was 18.1 µM (inactive) and the GI50 (HCT-116) was 13.6 µM (inactive). For the same compound, the GI50 (HCT-15) was 5 µM, the GI50 (HL-60) was 3.07 µM (inactive) and the GI50 (HOP-18) was 11.7 µM (inactive). For the same compound, the GI50 (HOP-62) was 15.3 µM (inactive), the GI50 (HOP-92) was 13 µM (inactive) and the GI50 (HT-29) was 16.6 µM (inactive). The GI50 (IGROV-1) was 13.2 µM (inactive), the GI50 (K562) was 3.2 µM (inactive) and the GI50 (KM-20L2) was 7.69 µM (inactive). The GI50 (KM12) was 10 µM (inactive), the GI50 (LOX IMVI) was 1.76 µM (inactive) and the GI50 (LXFL 529) was 3.6 µM (inactive). For the same compound, the GI50 (M14) was 10.6 µM (inactive), the GI50 (M19-MEL) was 13.7 µM (inactive) and the GI50 (Malme-3M) was 11.4 µM (inactive). For the same compound, the GI50 (NCI-H23) was 9.2 µM (inactive), the GI50 (NCI-H460) was 5.74 µM (inactive) and the GI50 (NCI-H522) was 1.67 µM (inactive). For the same compound, the GI50 (OVCAR-3) was 5.24 µM (inactive), the GI50 (OVCAR-5) was 11.8 µM (inactive) and the GI50 (OVCAR-8) was 4.38 µM (inactive). The GI50 (RPMI-8226) was 4.06 µM (inactive), the GI50 (SF-268) was 5.05 µM (inactive) and the GI50 (SF-295) was 14.1 µM (inactive). For the same compound, the GI50 (SF-539) was 4.76 µM (inactive), the GI50 (SK-MEL-28) was 12.1 µM (inactive) and the GI50 (SK-MEL-2) was 10.3 µM (inactive). The GI50 (SK-MEL-5) was 13.4 µM (inactive), the GI50 (SK-OV-3) was 14.4 µM (inactive) and the GI50 (SN12C) was 4.91 µM (inactive). The GI50 (SNB-19) was 12.3 µM (inactive), the GI50 (SNB-75) was 11.5 µM (inactive) and the GI50 (SNB-78) was 24.8 µM (inactive). For the same compound, the GI50 (SR) was 6.24 µM (inactive), the GI50 (SW-620) was 4.26 µM (inactive) and the GI50 (TK-10) was 15 µM (inactive). For the same compound, the GI50 (U-251) was 10.8 µM (inactive), the GI50 (UACC-257) was 13 µM (inactive) and the GI50 (UACC-62) was 9.2 µM (inactive). The GI50 (UO-31) was 12.9 µM (inactive).

For `O=C1[C@H]2ON(c3ccccc3)C(c3ccc(Cl)cc3Cl)[C@H]2C(=O)N1c1ccc(Cc2ccc(N3C(=O)[C@@H]4ON(c5ccccc5)C(c5ccc(Cl)cc5Cl)[C@@H]4C3=O)cc2)cc1` (stereo partly drawn), the GI50 (786-0) was > 100 µM (inactive), the GI50 (A498) was > 100 µM (inactive) and the GI50 (A549) was > 100 µM (inactive). The GI50 (ACHN) was > 100 µM (inactive), the GI50 (CAKI-1) was > 100 µM (inactive) and the GI50 (CCRF-CEM) was > 100 µM (inactive). For the same compound, the GI50 (COLO 205) was > 100 µM (inactive), the GI50 (DLD-1) was > 100 µM (inactive) and the GI50 (DMS-114) was > 100 µM (inactive). The GI50 (DMS-273) was > 100 µM (inactive), the GI50 (EKVX) was > 100 µM (inactive) and the GI50 (HCC 2998) was > 100 µM (inactive). The GI50 (HCT-116) was > 100 µM (inactive), the GI50 (HCT-15) was over 100 µM and the GI50 (HL-60) was > 100 µM (inactive). The GI50 (HOP-18) was > 100 µM (inactive), the GI50 (HOP-62) was > 100 µM (inactive) and the GI50 (HOP-92) was > 100 µM (inactive). For the same compound, the GI50 (HT-29) was > 100 µM (inactive), the GI50 (IGROV-1) was > 100 µM (inactive) and the GI50 (K562) was > 100 µM (inactive). For the same compound, the GI50 (KM-20L2) was > 100 µM (inactive), the GI50 (KM12) was > 100 µM (inactive) and the GI50 (LOX IMVI) was > 100 µM (inactive). For the same compound, the GI50 (LXFL 529) was > 100 µM (inactive), the GI50 (M14) was 19.6 µM (inactive) and the GI50 (M19-MEL) was > 100 µM (inactive). For the same compound, the GI50 (MOLT-4) was > 100 µM (inactive), the GI50 (Malme-3M) was 96.8 µM (inactive) and the GI50 (NCI-H226) was > 100 µM (inactive). For the same compound, the GI50 (NCI-H23) was > 100 µM (inactive), the GI50 (NCI-H460) was > 100 µM (inactive) and the GI50 (NCI-H522) was > 100 µM (inactive). For the same compound, the GI50 (OVCAR-3) was > 100 µM (inactive), the GI50 (OVCAR-4) was > 100 µM (inactive) and the GI50 (OVCAR-5) was > 100 µM (inactive). For the same compound, the GI50 (OVCAR-8) was > 100 µM (inactive), the GI50 (RPMI-8226) was > 100 µM (inactive) and the GI50 (SF-268) was > 100 µM (inactive). The GI50 (SF-295) was > 100 µM (inactive), the GI50 (SF-539) was > 100 µM (inactive) and the GI50 (SK-MEL-28) was > 100 µM (inactive). For the same compound, the GI50 (SK-MEL-2) was > 100 µM (inactive), the GI50 (SK-MEL-5) was 73.1 µM (inactive) and the GI50 (SK-OV-3) was > 100 µM (inactive). The GI50 (SN12C) was > 100 µM (inactive), the GI50 (SNB-19) was > 100 µM (inactive) and the GI50 (SNB-75) was > 100 µM (inactive). The GI50 (SNB-78) was > 100 µM (inactive), the GI50 (SR) was 44.1 µM (inactive) and the GI50 (SW-620) was > 100 µM (inactive). The GI50 (TK-10) was > 100 µM (inactive), the GI50 (U-251) was > 100 µM (inactive) and the GI50 (UACC-257) was > 100 µM (inactive). For the same compound, the GI50 (UACC-62) was > 100 µM (inactive) and the GI50 (UO-31) was > 100 µM (inactive).
